Assay results as given in paper PMC10121968, “Fosgonimeton, a Novel Positive Modulator of the HGF/MET System, Promotes Neurotrophic and Procognitive Effects in Models of Dementia” (Neurotherapeutics, 2022).
Non-standard residues stand in square brackets, D forms with d. Residues, ends and D or L forms follow the SMILES beside them. *: point of attachment. Hexanoyl = CCCCCC(=O)*; Ahx = NCCCCCC(=O)O

Tested on: IL-6
Assay: IL-6 release in LPS-challenged THP-1 macrophages (HTRF)
Format: cell-based, human
Conditions: 1 µM, 20 min pretreatment, LPS 50 ng/mL 24 h, vs LPS + vehicle
Protocol: To determine the effect of fosgo-AM on LPS-induced cytokine release, we sought to determine the levels of interleukin-1β (IL-1β), interleukin-6 (IL-6), and tumor necrosis factor-α (TNF-α) in LPS-challenged THP-1–differentiated macrophages in the presence and absence of fosgo-AM. THP-1 monocytes were grown at 37 °C, 5% CO2 in Roswell Park Memorial Institute (RPMI) medium + 10% FBS until approximately 80% confluent. Cells were seeded in polystyrene-treated 96-well cell culture plates at approximately 50,000 cells/well in 100-µL complete media. 100 µL Phorbol myristate acetate was then added to each well for a final concentration of 100 ng/mL. The plate was then incubated for 3 days at 37 °C, 5% CO2 to prime the monocytes into macrophages. […] For cytokine quantification, cell culture supernatant was assayed by HTRF kits to assess levels of IL-1β (Human IL-1β kit, #62HIL1BPEG, Cisbio, Codolet, France) and IL-6 (Human IL-6 kit, 62HIL06PET, Cisbio, Codolet, France), and by ELISA (Human TNF-α ELISA kit, KHC3011, ThermoFisher, Waltham, Massachusetts) to determine the levels of TNF-α. […] Fluorescence emission at 2 different wavelengths (665 nm and 620 nm) were measured on an Envision plate reader (PerkinElmer, Waltham, Massachusetts), and HTRF ratio of the acceptor and donor emission signals for each well was calculated as follows: HTRF ratio = (665 nm/620 nm) × 10,000. […]

With `CCCCCC(=O)N[C@@H](Cc1ccc(O)cc1)C(=O)N[C@H](C(=O)NCCCCCC(N)=O)[C@@H](C)CC` [fosgo-AM] (Hexanoyl-Tyr-Ile-[Ahx]-NH2) the IL-6 release was “significant decrease”.
